Data taken from US10391086B2, “Use of EP4 receptor antagonists in the treatment of cartilage disease” (AskAt Inc., priority 2013, dated 2019).

System: bovine full-depth cartilage explants
Assay: Ex vivo bovine cartilage explant model
Type: cell-based
Settings: serum-free culture, biomarkers (P2NP, C2M, AGNx1, AGNx2) in supernatant at day 7, 14 and 21, FIG. 1 (C2M) and FIG. 2 (AGNx2), oncostatin M + TNF-alpha
Description: The method of this assay is descrived in the following literature (Rheumatol Int. 2013 February; 33(2):401-11).
Full-depth cartilage explants were harvested from the knee of either back legs of a cow less than 24 month old. All the FDC explants are divided into different treatment group according to the explants weight and metabolic activity (viability) measured by Alamar Blue. Compounds were freshly added to the explants at each media change. The explants were cultured in serum-free conditions. Supernatants retrieved from the culture were analyzed by biomarkers (P2NP, C2M, AGNx1, AGNx2) at day 7, 14 and 21.

SMILES	inhibition of cartilage destruction
CCc1nc2c(C)nc(C)cc2n1-c1ccc(CCNC(=O)NS(=O)(=O)c2ccc(C)cc2)cc1 [Compound A, 3-[2-(4-{2-ethyl-4,6-dimethyl-1H-imidazo[4,5-c]pyridin-1-yl}phenyl)ethyl]-1-[(4-methylbenzene)sulfonyl]urea]	dose-dependent inhibition of cartilage destruction
C[C@H](NC(=O)c1cc(Cl)cnc1Oc1cccc(F)c1)c1ccc(C(=O)O)cc1 [Compound B, 4-[(1S)-1-({[5-chloro-2-(3-fluorophenoxy)pyridin-3-yl]carbonyl}amino)ethyl]benzoic acid]	dose-dependent inhibition of cartilage destruction
